Consider 21 molecules from patent publication US20240254129A1, “HETEROCYCLIC COMPOUNDS AND USES THEREOF” (Kumquat Biosciences Inc., priority 2021, published 2024).

Read-outs that look alike come from different tables or passages of the source.

Experiment [1] addresses T1, wildtype Kras / hSOS1 (Homo sapiens, UniProt P01116).
T1 construct: made in house; host or cells: E. coli BL21 (DE3)
As to the kind of experiment: HTRF assay, wildtype Kras / SOS1 interaction. In kind it is binding. The following applies: read-out: IC50 against wildtype Kras. The method, boiled down:
(§1)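 Inhibition of wildtype or mutant K-Ras binding to hSOS1 is measured by FRET between antibody-bound Eu donor and XL665 acceptor. Protein levels are matched to the IC50 range under study. The 665/620 nm signal after ≥10 min yields IC50.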
A general note: In TR-FRET formats the signal depends on donor and acceptor labels being close together.

Experiment [2] concerns the target GST-tagged K-Ras mutant / His-tagged hSOS1 (Homo sapiens, UniProt P01116). The experiment can be described thus: HTRF assay, K-Ras mutant / SOS1 interaction. The format is binding. The following applies: read-out: IC50 against mutant Kras. The method, boiled down:
as §1

Where [3] appears, read: compound nos. 102-196, general methodology of example 5.

T1 sequence (P01116 1-188 isoform P01116-2): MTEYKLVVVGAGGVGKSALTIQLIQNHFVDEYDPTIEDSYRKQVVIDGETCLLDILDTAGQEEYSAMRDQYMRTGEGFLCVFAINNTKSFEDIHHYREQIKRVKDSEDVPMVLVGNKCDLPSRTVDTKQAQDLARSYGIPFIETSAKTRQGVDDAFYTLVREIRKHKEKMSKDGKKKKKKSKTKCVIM
Chain of GST-tagged K-Ras mutant / His-tagged hSOS1 (P01116 whole entry G12D, form open): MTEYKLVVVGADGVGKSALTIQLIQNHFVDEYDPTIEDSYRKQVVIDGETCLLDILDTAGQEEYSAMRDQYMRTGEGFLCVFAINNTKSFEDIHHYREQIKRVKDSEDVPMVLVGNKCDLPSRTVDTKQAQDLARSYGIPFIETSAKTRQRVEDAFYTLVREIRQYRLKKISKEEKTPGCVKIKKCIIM

With `Cc1ccc2sc(N)nc2c1-c1c(Cl)cc2c(N3CC4CCC(C3)N4)nc(OCC34CCCN3CCC4)nc2c1F` [Compound 468, 4-(4-(3,8-diazabicyclo-[3.2.1]octan-3-yl)-6-chloro-8-fluoro-2-((tetrahydro-1H-pyrrolizin-7a(5H)-yl)meth-oxy)quinazolin-7-yl)-5-methylbenzo[d]thiazol-2-amine], the concentration for half-maximal inhibition (IC50) in experiment [1] (compound nos. 401-703) and in experiment [2] (compound nos. 401-703) was less than 500 nM throughout.
Consider `CN1CCC[C@H]1COc1nc(N2CCN(S(N)(=O)=O)CC(F)(F)C2)c2cc(Cl)c(-c3cccc4sc(N)nc34)c(F)c2n1` [Compound 150, 4-(7-(2-aminobenzo[d]-thiazol-4-yl)-6-chloro-8-fluoro-2-(((S)-1-methyl-pyrrolidin-2-yl)methoxy)-quinazolin-4-yl)-6,6-difluoro-1,4-diazepane-1-sulfonamide], for which the IC50 in experiment [1] (setting [3]) was less than 500 nM; in experiment [2] (setting [3]), more than 500 nM.
On to `Nc1nc2c(-c3c(Cl)cc4c(N5CCNCC(F)C5)nc(OC[C@@]56CCCN5C[C@H](F)C6)nc4c3F)ccc(F)c2s1` (stereo partly drawn) [Compound 164, 4-(6-chloro-8-fluoro-4-(6-fluoro-1,4-diazepan-1-yl)-2-(((2R,7aS)-2-fluorotetra-hydro-1H-pyrrolizin-7a(5H)-yl)methoxy)quinazolin-7-yl)-7-fluorobenzo[d]thiazol-2-amine], for which the IC50 in experiment [1] (setting [3]) and in experiment [2] (setting [3]) was less than 500 nM throughout.
As for `CN1CCC[C@H]1COc1nc(N2CCNCC(F)(F)C2)c2cc(Cl)c(-c3cccc4nc(N)n(C)c34)c(F)c2n1` [Compound 186, 7-(6-chloro-4-(6,6-difluoro-1,4-diazepan-1-yl)-8-fluoro-2-(((S)-1-methylpyrrolidin-2-yl)methoxy)quinazolin-7-yl)-1-methyl-1H-benzo[d]-imidazol-2-amine], the IC50 in experiment [1] (setting [3]) and in experiment [2] (setting [3]) was more than 500 nM in each case.
In the case of `OC1Cc2ccccc2N(c2ccc3c(N4CCCCCC4)nc(OCC45CCCN4CCC5)nc3c2F)C1` (stereo not drawn) [Compound 534, 1-(4-(azepan-1-yl)-8-fluoro-2-((tetrahydro-1H-pyrrol-izin-7a(5H)-yl)methoxy)-quinazolin-7-yl)-1,2,3,4-tetrahydroquinolin-3-ol], the IC50 in experiment [1] (compound nos. 401-703) and in experiment [2] (compound nos. 401-703) was more than 500 nM each time.
In the case of `Nc1c(Cl)cccc1-c1c(Cl)cc2c(N3CC4CCC(C3)N4)nc(OCC34CCCN3CCC4)nc2c1F` [Compound 589, 2-(4-(3,8-diazabicyclo-[3.2.1]octan-3-yl)-6-chloro-8-fluoro-2-((tetrahydro-1H-pyrrolizin-7a(5H)-yl)meth-oxy)quinazolin-7-yl)-6-chloroaniline], the IC50 in experiment [1] (compound nos. 401-703) and in experiment [2] (compound nos. 401-703) was more than 500 nM each time.
Consider `Nc1nc2c(-c3c(Cl)cc4c(N5CC6CCC(C5)N6)nc(OC[C@@]56CCCN5C[C@H](F)C6)nc4c3F)cccc2cc1F` [Compound 665, 8-(4-(3,8-diazabicyclo-[3.2.1]octan-3-yl)-6-chloro-8-fluoro-2-(((2R,7aS)-2-fluorotetrahydro-1H-pyrrol-izin-7a(5H)-yl)methoxy)-quinazolin-7-yl)-3-fluoro-quinolin-2-amine], for which the IC50 in experiment [1] (compound nos. 401-703) and in experiment [2] (compound nos. 401-703) was more than 500 nM in each case.
For `Nc1nc2c(-c3c(Cl)cc4c(N5CCNCC(F)(F)C5)nc(OCC56CCCN5C[C@H](F)C6)nc4c3F)cccc2s1` (stereo partly drawn) [Compound 120, 4-(6-chloro-4-(6,6-difluoro-1,4-diazepan-1-yl)-8-fluoro-2-(((2R)-2-fluorotetrahydro-1H-pyrrolizin-7a(5H)-yl)-methoxy)quinazolin-7-yl)-benzo[d]thiazol-2-amine], the half-maximal inhibitory concentration (IC50) in experiment [1] (setting [3]) and in experiment [2] (setting [3]) was less than 500 nM in each case.
In the case of `Cc1cc(N)nc(-c2c(Cl)cc3c(N4CCNCC(F)(F)C4)nc(OC[C@@H]4CCCN4C)nc3c2F)c1` [Compound 189, (S)-6-(6-chloro-4-(6,6-difluoro-1,4-diazepan-1-yl)-8-fluoro-2-((1-methyl-pyrrolidin-2-yl)methoxy)-quinazolin-7-yl)-4-methyl-pyridin-2-amine], the concentration for half-maximal inhibition (IC50) in experiment [1] (setting [3]) and in experiment [2] (setting [3]) was more than 500 nM each time.
Consider `CC1CCCN(c2nc(OC[C@@H]3CCCN3C)nc3c(F)c(-c4cccc5sc(N)nc45)c(Cl)cc23)CC1` (stereo partly drawn) [Compound 416, 4-(6-chloro-8-fluoro-4-(4-methylazepan-1-yl)-2-(((S)-1-methylpyrrolidin-2-yl)-methoxy)quinazolin-7-yl)-benzo[d]thiazol-2-amine], for which the values for the concentration for half-maximal inhibition (IC50) in experiment [1] (compound nos. 401-703) and in experiment [2] (compound nos. 401-703) were less than 500 nM and more than 500 nM, respectively.
Taken in the same sequence, the figures for `N#Cc1n[nH]c2c(F)ccc(-c3c(Cl)cc4c(N5CC6CCC(C5)N6)nc(OC[C@@]56CCCN5C[C@H](F)C6)nc4c3F)c12` [Compound 531, 4-(4-(3,8-diazabicyclo-[3.2.1]octan-3-yl)-6-chloro-8-fluoro-2-(((2R,7aS)-2-fluorotetrahydro-1H-pyrrol-izin-7a(5H)-yl)methoxy)-quin-azolin-7-yl)-7-fluoro-1H-indazole-3-carbonitrile] were more than 500 nM and more than 500 nM.
For the molecule `CN1CCC[C@H]1COc1nc(N2CCCC(O)CC2)c2cc(Cl)c(-c3cccc4sc(N)nc34)c(F)c2n1` (stereo partly drawn) [Compound 173, 1-(7-(2-aminobenzo[d]-thiazol-4-yl)-6-chloro-8-fluoro-2-(((S)-1-methyl-pyrrolidin-2-yl)methoxy)-quinazolin-4-yl)azepan-4-ol], the IC50 in experiment [1] (setting [3]) and in experiment [2] (setting [3]) was less than 500 nM in each case.
Regarding `CN1CCCC1CCn1nc(N2CC3CCC(C2)N3)c2ccc(-c3cc(O)cc4ccccc34)c(F)c2c1=O` (stereo not drawn) [Compound 529, 4-(3,8-diazabicyclo[3.2.1]-octan-3-yl)-8-fluoro-7-(3-hydroxynaphthalen-1-yl)-2-(2-(1-methylpyrrolidin-2-yl)ethyl)phthalazin-1(2H)-one], the IC50 in experiment [1] (compound nos. 401-703) and in experiment [2] (compound nos. 401-703) was more than 500 nM in each case.
On to `Nc1nc2c(-c3c(Cl)cc4c(N5CCNCC(F)(F)C5)nc(OCC56CCCN5C(=O)CC6)nc4c3F)cccc2s1` (stereo not drawn) [Compound 151, 7a-(((7-(2-aminobenzo[d]-thiazol-4-yl)-6-chloro-4-(6,6-difluoro-1,4-diazepan-1-yl)-8-fluoroquinazolin-2-yl)oxy)methyl)hexahydro-3H-pyrrolizin-3-one], for which the IC50 in experiment [1] (setting [3]) and in experiment [2] (setting [3]) was more than 500 nM each time.
With `Nc1nc2c(-c3c(Cl)cc4c(N5CCNCC(F)(F)C5)nc(OCCCN5CCOCC5)nc4c3F)cccc2s1` [Compound 129, 4-(6-chloro-4-(6,6-difluoro-1,4-diazepan-1-yl)-8-fluoro-2-(3-morpholinopropoxy)-quinazolin-7-yl)benzo[d]-thiazol-2-amine], the results for the IC50 in experiment [1] (setting [3]) and in experiment [2] (setting [3]) were less than 500 nM and more than 500 nM, respectively.
Turning to `N#CCN1C2CCC1CN(c1nc(OC[C@@]34CCCN3C[C@H](F)C4)nc3c(F)c(-c4ccc(F)c5sc(N)c(C#N)c45)c(Cl)cc13)C2` [Compound 570, 2-amino-4-(6-chloro-4-((1R,5S)-8-(cyanomethyl)-3,8-diazabicyclo[3.2.1]-octan-3-yl)-8-fluoro-2-(((2R,7aS)-2-fluorotetra-hydro-1H-pyrrolizin-7a(5H)-yl)methoxy)quinazolin-7-yl)-7-fluorobenzo[b]thio-phene-3-carbonitrile], the IC50 in experiment [1] (compound nos. 401-703) is more than 500 nM; in experiment [2] (compound nos. 401-703) it was less than 500 nM.
`Cc1ccc2cnn(C)c2c1-c1c(Cl)cc2c(N3CCCCC(F)(F)C3)nc(OC[C@@]34CCCN3C[C@H](F)C4)nc2c1F` [Compound 179, 6-chloro-4-(3,3-difluoro-azepan-1-yl)-7-(1,6-dimethyl-1H-indazol-7-yl)-8-fluoro-2-(((2R,7aS)-2-fluoro-tetrahydro-1H-pyrrolizin-7a(5H)-yl)-methoxy)quinazoline]: the half-inhibitory concentration (IC50) in experiment [1] (setting [3]) and in experiment [2] (setting [3]) was more than 500 nM throughout.
For `CNCC1CN(c2nc(OCC34CCCN3CCC4)nc3c(F)c(-c4ccc(F)c5sc(N)nc45)c(Cl)cc23)CCCO1` (stereo not drawn) [Compound 481, 4-(6-chloro-8-fluoro-4-(2-((methylamino)methyl)-1,4-oxazepan-4-yl)-2-((tetra-hydro-1H-pyrrolizin-7a(5H)-yl)methoxy)quinazolin-7-yl)-7-fluorobenzo[d]thiazol-2-amine], the IC50 in experiment [1] (compound nos. 401-703) and in experiment [2] (compound nos. 401-703) was less than 500 nM in each case.
With `CN(C)CC1(COc2nc(N3CC4CCC(C3)N4)c3cc(Cl)c(-c4ccc(F)c5sc(N)nc45)c(F)c3n2)CC1` [Compound 523, 4-(4-(3,8-diazabicyclo-[3.2.1]octan-3-yl)-6-chloro-2-((1-((dimethylamino)-methyl)cyclopropyl)meth-oxy)-8-fluoroquinazolin-7-yl)-7-fluorobenzo[d]thiazol-2-amine], the IC50 is more than 500 nM in experiment [1] (compound nos. 401-703) and less than 500 nM in experiment [2] (compound nos. 401-703).
With `CN1CCC[C@H]1COc1nc(N2CCNCC(F)(F)C2)c2cc(Cl)c(-c3cccc4oc(O)nc34)c(F)c2n1` [Compound 176, 4-(6-chloro-4-(6,6-difluoro-1,4-diazepan-1-yl)-8-fluoro-2-(((S)-1-methylpyrrolidin-2-yl)methoxy)quinazolin-7-yl)benzo[d]oxazol-2-ol], the IC50 in experiment [1] (setting [3]) and in experiment [2] (setting [3]) was more than 500 nM each time.
In the case of `CN1CCC[C@H]1COc1nc(N2CCN(S(C)(=O)=O)CC(F)(F)C2)c2cc(Cl)c(-c3cccc4sc(N)nc34)c(F)c2n1` [Compound 140, 4-(6-chloro-4-(6,6-difluoro-4-(methylsulfonyl)-1,4-diazepan-1-yl)-8-fluoro-2-(((S)-1-methylpyrrolidin-2-yl)methoxy)quinazolin-7-yl)-benzo[d]thiazol-2-amine], the IC50 in experiment [1] (setting [3]) was less than 500 nM; in experiment [2] (setting [3]), more than 500 nM.

The IC50 is the concentration that inhibits the measured activity by half.
